Where two headings read alike, the source gives them in different places.
Legend:
[1] = molecular target: T1, Fc portion of human IgG (binding of protein A to human IgG); assay: Competitive protein A binding ELISA
T1 construct: fused on or other part: Horseradish peroxidase chemically conjugated to the IgG (HRP-IgG)
Summary of the method: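 Protein A coated overnight at 4 °C and blocked with 2% BSA. Compound, diluted in PBS or PBS-20% DMSO, competed with HRP-conjugated human IgG for 1 h at 37 °C. Bound IgG detected with ABTS at 405 nm; IC50 is the concentration inhibiting 50% of protein A binding.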

[2] = system: TNFα-induced apoptosis, WEHI-13VAR cells; assay: TNFα induced apoptosis in WEHI-13VAR cells (MTT); format: cell-based, murine; conditions: Mus musculus
Experimental: Effect of compounds on TNFα-induced apoptosis was measured by a standard biological assay using WEHI-13VAR cells. These cells undergo apoptosis when they are incubated in the presence of TNFα and actinomycin D. 2×10^4 WEHI-13VAR cells were incubated in RPMI supplemented with 1% sodium pyruvate and 10% FBS, overnight at 37° C. for cell adherence. The cells were then cultured in the presence of 1 μg/mL of actinomycin D (to inhibit protein synthesis) and 0.04 nM TNFα with or without compounds at 37° C. After 16-24 h, 50 μL of a solution of 2 mg/mL of MTT was added to each well and the plate was then incubated for 4 h at 37° C. Only viable cells metabolize MTT to form formazan salt, which is detectable by the measurement of absorbance at 570 nm. After the incubation, the plate was inverted to remove medium and dead cells. 150 μL DMSO was added to each well to stop the reaction and solubilize the formazan salt. Optical density was read on a EL 800, universal Microplate reader (Bio-Tek). A decrease in the optical density is direct evidence of cell apoptosis induced by TNFα. Compounds were also compared to the activity of an anti-TNFα neutralizing antibody.

RAW 264.7 cells = assay: Phagocytosis of FITC-immune complexes by RAW 264.7 cells; format: cell-based
Experimental: This assay was performed to determine the ability of protein A mimic compounds to stimulate or inhibit uptake of FITC-Immune Complex (IC). FITC-IC was prepared by mixing human serum albumin (HSA)-fluorescein isothiocyanate (FITC) with mouse IgG anti-HSA at a 1:4 ratio (four molecules of antibody for one molecule of antigen) on a rotary shaker for 1 h at room temperature. Soluble IC was then incubated with or without compounds or protein A for 10 min. This mixture was added to RAW 264.7 cells and incubated for 2 h at 37° C. for IC phagocytosis. After incubation, cells were washed twice in cold PBS (5 min, 1200 rpm) and fixed with 500 μL PBS containing 2% formaldehyde. FITC signal taken up by RAW 264.7, which is indicative of IC phagocytosis, was determined by flow cytometry analysis in a Becton Coulter counter with an argon laser and signal was measured through a 530/30 nm filter.

[3] = molecular target: TNFα / p75 TNFα receptor (CD120b) (Homo sapiens, UniProt P01375); assay: Binding ELISA: sTNF-R2 binding to plastic coated TNF-α
TNFα / p75 TNFα receptor (CD120b), sequence (P01375 77-233 limits assumed): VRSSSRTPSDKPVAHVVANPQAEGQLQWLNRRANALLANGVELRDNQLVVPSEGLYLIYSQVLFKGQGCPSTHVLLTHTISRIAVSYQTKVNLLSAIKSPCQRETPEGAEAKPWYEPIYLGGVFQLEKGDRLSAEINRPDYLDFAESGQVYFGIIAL
Experimental: Compounds were tested for their ability to bind to TNFα or inhibit the interaction of TNFα with its respective receptors; p55 and p75 TNFα receptor. Three binding ELISA assays were undertaken as described by Mancini et al. Biochemical Pharmacology 58, 851-859 (1999). TNFα or receptor (1 μg/mL) was coated on a 96-well plate Maxisorp, overnight at 4° C. After incubation, unbound TNFα or p55 TNFα receptor or p75 TNFα receptor was removed and the plate washed three times with PBS. The plate was then incubated with 100 μL/well of a 2% BSA solution for 1 h at 37° C. to block non specific protein binding. After incubation, the plate was washed three times with PBS. Biotinylated recombinant human TNFα p55 or p75 receptor or biotinylated recombinant human TNFα was added to the wells in the presence or absence of compounds. The plate was incubated for 1 h at 37° C. After incubation, the plate was washed three times with PBS to remove unbound labeled p55 or p75 receptor or recombinant human TNFα. 100 μL of avidin-HRP (diluted 1/2000 in PBS-0.1% BSA) was added to each well and incubated 1 h at 37° C. Bound p55 or p75 receptor or recombinant human TNFα was detected by the addition of 200 μL of 3,3′,5,5′-tetramethylbenzidine (TMB) per well for 15 min. The plate was then read at 655 nm on a EL 800 universal Microplate reader (Bio-Tek, Mississauga, Canada). Data was analyzed in Microsoft Excel and recorded as the percentage of inhibition of p55 or p75 binding to TNFα or TNFα binding to RI (p55) or RII (p75).

[4] = Table 1, PBS-20% DMSO, read-out: IC50 (μM): Assay in PBS-20% DMSO

Nc1ccc(CCNc2nc(Nc3ccc(CCNc4nc(NCCO)nc(Nc5cccc(N)c5)n4)cc3)nc(Nc3cccc(N)c3)n2)cc1 [Compound 19a]
IC50 [1, 4]: 0.003 µM
IC50 ([1]; Table 1, PBS, read-out: IC50 (μM): Assay in PBS): 0.06 µM
IC50 ([1]; Table 2, PBS-20% DMSO, n = 5 or 6, read-out: IC50 (n = 5 or 6) PBS-20% DMSO): 0.0035 µM
IC50 ([1]; Table 2, PBS, n = 5 or 6, read-out: IC50 (n = 5 or 6) PBS): 0.088 µM

Oc1ccc(CCNc2nc(NCCNc3nc(NCCc4ccc(O)cc4)nc(Nc4ccccc4)n3)nc(Nc3ccccc3)n2)cc1 [Compound 1]
inhibition at 10 µM ([2]; 1 × 10^−5M): 36.8%
inhibition at 20 µM ([2]; 2 × 10^−5M): 17.7%
inhibition at 40 µM ([2]; 4 × 10^−5M): -3.8%
inhibition at 5 µM ([2]; 5 × 10^−6M): 14.3%
inhibition of phagocytosis of IC (RAW 264.7 cells; 10 and 20 μM): approximately 20%
phagocytosis of IC (RAW 264.7 cells; concentrations of 1, 2 and 4 μM): increase
inhibition at 100 µM ([3]; 10^−4 M): 0%
inhibition at 10 µM ([3]; 10^−5 M): 0%
IC50 [1, 4]: 50 µM
